Test results taken from patent US11427606B2, “Azithromycin derivatives containing a phosphonium ion as anticancer agents” (Rising Tide Foundation, priority 2017, dated 2022).

System: MDA-231 cancer cells
Assay: Inhibition of proliferation assay: cell confluence (IncuCyte imaging)
Assay type: cell-based
Details: compound at 10 uM; MDA-231 cells; IncuCyte images every 3 h over 4-5 d; relative confluence normalised to time zero
Procedure, shortened: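 MDA-231 cancer cells from ATCC were grown in DMEM with 10% FBS, 2 mM Glutamax, 1 mM NEAA and 1 mM sodium pyruvate. An IncuCyte Live Cell Imaging microscope with a 10× objective imaged one field per well every 3 h for 4-5 d. Its built-in algorithm computed percent confluence as a proliferation surrogate, and values were normalised to each sample's time-zero value.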

Row | Compound | % Confluence
1 | CC[C@H]1OC(=O)[C@H](C)[C@@H](O[C@H]2C[C@@](C)(OC)[C@@H](O)[C@H](C)O2)[C@H](C)[C@@H](O[C@@H]2O[C@H](C)C[C@H](N(C)C)[C@H]2O)[C@](C)(O)C[C@@H](C)CN(C(=O)CCCCCCCCCCC[PH](c2ccccc2)(c2ccccc2)C(C)C)[C@H](C)[C@@H](O)[C@]1(C)O [Example 33, {12-[(2R,3S,4R,5R,8R,10R,11R,12S,13S,14R)-11-{[(2S,3R,4S,6R)-4-(dimethylamino)-3-hydroxy-6-methyloxan-2-yl]oxy}-2-ethyl-3,4,10-trihydroxy-13-{[(2R,4R,5S,6S)-5-hydroxy-4-methoxy-4,6-dimethyloxan-2-yl]oxy}-3,5,8,10,12,14-hexamethyl-15-oxo-1-oxa-6-azacyclopentadecan-6-yl]-12-oxododecyl}diphenyl(propan-2-yl)phosphonium chloride] | 5.6%
2 | CC[C@H]1OC(=O)[C@H](C)[C@@H](O[C@H]2C[C@@](C)(OC)[C@@H](O)[C@H](C)O2)[C@H](C)[C@@H](O[C@@H]2O[C@H](C)C[C@H](N(C)C)[C@H]2O)[C@](C)(O)C[C@@H](C)CN(C(=O)CCCCCCCCCCC[PH](CCOC)(c2ccccc2)c2ccccc2)[C@H](C)[C@@H](O)[C@]1(C)O [Example 34, {12-[(2R,3S,4R,5R,8R,10R,11R,12S,13S,14R)-11-{[(2S,3R,4S,6R)-4-(dimethylamino)-3-hydroxy-6-methyloxan-2-yl]oxy}-2-ethyl-3,4,10-trihydroxy-13-{[(2R,4R,5S,6S)-5-hydroxy-4-methoxy-4,6-dimethyloxan-2-yl]oxy}-3,5,8,10,12,14-hexamethyl-15-oxo-1-oxa-6-azacyclopentadecan-6-yl]-12-oxododecyl}(2-methoxyethyl)diphenylphosphonium chloride] | 5.4%
3 | CC[C@H]1OC(=O)[C@H](C)[C@@H](O[C@H]2C[C@@](C)(OC)[C@@H](O)[C@H](C)O2)[C@H](C)[C@@H](O[C@@H]2O[C@H](C)C[C@H](N(C)C)[C@H]2O)[C@](C)(O)C[C@@H](C)CN(C(=O)CCCCCCCCCCC[PH](c2ccccc2)(c2ccccc2)C2CCOCC2)[C@H](C)[C@@H](O)[C@]1(C)O [Example 35, {12-[(2R,3S,4R,5R,8R,10R,11R,12S,13S,14R)-11-{[(2S,3R,4S,6R)-4-(dimethylamino)-3-hydroxy-6-methyloxan-2-yl]oxy}-2-ethyl-3,4,10-trihydroxy-13-{[(2R,4R,5S,6S)-5-hydroxy-4-methoxy-4,6-dimethyloxan-2-yl]oxy}-3,5,8,10,12,14-hexamethyl-15-oxo-1-oxa-6-azacyclopentadecan-6-yl]-12-oxododecyl}(oxan-4-yl)diphenylphosphonium chloride] | 97.2%
4 | CC[C@H]1OC(=O)[C@H](C)[C@@H](O[C@H]2C[C@@](C)(OC)[C@@H](O)[C@H](C)O2)[C@H](C)[C@@H](O[C@@H]2O[C@H](C)C[C@H](N(C)C)[C@H]2OC(C)=O)[C@](C)(O)C[C@@H](C)CN(C)[C@H](C)[C@@H](OC(=O)NCCCCCCCCCC[P+](C)(C)c2ccccc2)[C@]1(C)O.[Br-] [Example 38, (2S,3R,4S,6R)-2-{[(2R,3R,4R,5R,8R,10R,11R,12S,13S,14R)-4-[({10-[dimethyl(phenyl)phosphoniumyl]decyl}carbamoyl)oxy]-2-ethyl-3,10-dihydroxy-13-{[(2R,4R,5S,6S)-5-hydroxy-4-methoxy-4,6-dimethyloxan-2-yl]oxy}-3,5,6,8,10,12,14-heptamethyl-15-oxo-1-oxa-6-azacyclopentadecan-11-yl]oxy}-4-(dimethylamino)-6-methyloxan-3-yl acetate bromide] | 135%
5 | tris(4-chlorophenyl)({8-[(2R,3S,4R,5R,8R,10R,11R,12S,13S,14R)-11-{[(2S,3R,4S,6R)-4-(dimethylamino)-3-hydroxy-6-methyloxan-2-yl]oxy}-2-ethyl-3,4,10-trihydroxy-13-{[(2R,4R,5S,6S)-5-hydroxy-4-methoxy-4,6-dimethyloxan-2-yl]oxy}-3,5,8,10,12,14-hexamethyl-15-oxo-1-oxa-6-azacyclopentadecan-6-yl]-8-oxooctyl})phosphoniumhexafluorophosphate(V) [Example 4] | 87.7%
